In US5466679A, “Carboranyl uridines and their use in boron neutron capture therapy” (The Ohio State University Research Foundation, priority 1994, dated 1995):
Where “and” joins values, the source holds several entries; their conditions need not be identical. Equal values may be shown once.

Columns and labels:
F98 glioma cells [1] = test: Cellular uptake of boron in F98 glioma cells (16 hours incubation, DCP atomic emission spectroscopy); type: cell-based; settings: for cellular uptake of boron at 16 hours: F98 glioma cells; for Boron Conc. /g, 16 hrs incubation: F98 Glioma Cells
Experimental: To illustrate the uptake and retention of the various boron-containing compounds as taught hereinabove, there were evaluated 5'-O-(o-carboran-1-ylmethyl)uridine of FIG. 1, and 3-O-(o-carboran-1-ylmethyl)-D-glucose of FIG. 2 in F98 glioma cells. The cellular uptake of boron at 16 hours for the compound of FIG. 1 was 83.8 micrograms of boron per gram of cells. The cellular uptake of boron at 16 hours for the compound of FIG. 2 was 65.2 micrograms of boron per gram of cells. […] This is an unexpected improvement in boron uptake and retention achieved by the present invention, relative to conventional Na2 B12 H11 SH.
(§1) Semiconfluent F98 glioma cells were incubated with the compound for 16 hours and after two washings with serum-free media, the cells were trypsinized, washed twice again and aliquots were analyzed for boron by Direct Current Plasma (DCP) Atomic Emission Spectroscopy. For the boron analyses there was used the following instrumentation and sample preparation for analysis:
(§2) A Spectraspan VB Direct Current Plasma-Atomic Emission Spectrometer, (Model #DCP-AES, Applied Research Laboratories, Brea, Calif.) was used for the boron determinations. This instrument combines a high resolution spectrometer with a high resolution Echelle grating and prism. The plasma source is argon gas heated to a temperature of 6000°-7000° K. The instrument settings used for analysis were: wave length 249.773 nm, argon flow 7L/min sleeve 50 psi, ceramic nebulizer 20 psi, entrance slits […], as predetermined by the manufacturer. The viewing height was […] between the arms of the "V" of the inverted "Y" configuration created by the three electrodes. The liquid uptake rate was approximately 2 mL/min. The operating power, once the plasma was established, was ^~ 40 V in the jet power supply with a 7 amp constant current output. With the operating parameters used no background correction was needed. Integration times and gain had been optimized by the manufacturer and were preset in the computer software. These particular parameters are not user alterable.
(§3) One to 2 mL of concentrated sulfuric acid, which was adequate for up to 1 g of tissue or cells, were added to 150×16 mm Pyrex culture tubes, and these were placed in a mineral oil bath, heated to 100° C. in an exhaust hood and stirred intermittently for one hour. Since no interference with the boron signal was found with the sulfuric acid-hydrogen peroxide cocktail, the amount of sulfuric acid used in digestion was determined by the ease of digestion for a particular sample, rather than by any specific ratio of sample weight to acid volume. The amount and type of tissue were critical factors for successful digestion. If the amount of tissue or cells approached 1 gram or more, there was more chance for overheating and loss of sample by bubbling. If sample size was small (<200 mg) there was more flexibility in terms of acid volume and digestion time.

F98 glioma cells [2] = test: Persistence (retention) of boron in F98 glioma cells; type: cell-based
Experimental: as §1, §2, §3
The results for cellular uptake and retention (i.e. persistence studies) for certain compounds of this invention compared to the clinically-used Na2 B12 H11 SH compound are shown in the following TABLE 1.

[3] = Incubating Media […], + approximates the blank value for cells

| Substance | cellular uptake of boron at 16 hours (F98 glioma cells [1]) | Boron Conc. /g, 16 hrs incubation (F98 glioma cells [1]; Boron Conc. in Incubating Media 13.5 µg/ml) [g⁻¹] | Persistence Studies, 12 hrs, B/g (F98 glioma cells [2]; Incubating Media […]) [B/g] | Persistence Studies, 24 hrs, B/g (F98 glioma cells [2]; Incubating Media […]) [B/g] | Persistence Studies, 48 hrs, B/g (F98 glioma cells [2]; 48 hrs, Incubating Media […]) [B/g] | Boron Conc. /g, 16 hrs incubation (F98 glioma cells [1]; Boron Conc. in Incubating Media 14.6 µg/ml) [g⁻¹] | Boron Conc. /g, 16 hrs incubation (F98 glioma cells [1]; Boron Conc. in Incubating Media 58.0 µg/ml) [g⁻¹] | Boron Conc. /g, 16 hrs incubation (F98 glioma cells [1]; Boron Conc. in Incubating Media 116.0 µg/ml) [g⁻¹] | Persistence Studies, 12 hrs, B/g (F98 glioma cells [2]; [3]) | Persistence Studies, 24 hrs, B/g (F98 glioma cells [2]; [3]) | time to attain background levels (rapidly removed) (F98 glioma cells [2]; F98 glioma cells) [h] |
| --- | --- | --- | --- | --- | --- | --- | --- | --- | --- | --- | --- |
| 3-O-(o-Carborany-1-ylmethyl)-D-glucose [FIG. 2] | 65.2 micrograms of boron per gram of cells | – | – | – | – | – | – | – | – | – | – |
| 5'-O-(o-Carboran-1-ylmethyl)uridine [FIG. 1] | 83.8 micrograms of boron per gram of cells | 88.9 | 23.9 | 19.3 | 10.5 | – | – | – | – | – | – |
| sodium mercaptoundecahydro-closo-dodecaborane [Na2 B12 H11 SH] | about 2.0 micrograms of boron per gram of cells | – | – | – | – | 4.3 | 7.2 | 26.7 | 3.1 B/g and 2.8 B/g and 3.4 B/g | .4 B/g and .8 B/g and 1.8 B/g | 6 to 12 |
